In patent publication US8034812B2, “Imidazopyridazine derivative having kinase inhibitory activity and pharmaceutical agent thereof” (Takeda Pharmaceutical Company Limited, priority 2006, dated 2011):

Key:
[1] = target: T1, PDGFRα intracellular domain protein (Homo sapiens, UniProt P16234); assay: Determination of platelet-derived growth factor receptor α (PDGFRα) kinase inhibitory activity (AlphaScreen); assay type: biochemical
T1 construct: 125 ng/ml of PDGFRα intracellular domain protein (UPSTATE); purchased UPSTATE
T1 sequence (P16234 550-1089 limits assumed): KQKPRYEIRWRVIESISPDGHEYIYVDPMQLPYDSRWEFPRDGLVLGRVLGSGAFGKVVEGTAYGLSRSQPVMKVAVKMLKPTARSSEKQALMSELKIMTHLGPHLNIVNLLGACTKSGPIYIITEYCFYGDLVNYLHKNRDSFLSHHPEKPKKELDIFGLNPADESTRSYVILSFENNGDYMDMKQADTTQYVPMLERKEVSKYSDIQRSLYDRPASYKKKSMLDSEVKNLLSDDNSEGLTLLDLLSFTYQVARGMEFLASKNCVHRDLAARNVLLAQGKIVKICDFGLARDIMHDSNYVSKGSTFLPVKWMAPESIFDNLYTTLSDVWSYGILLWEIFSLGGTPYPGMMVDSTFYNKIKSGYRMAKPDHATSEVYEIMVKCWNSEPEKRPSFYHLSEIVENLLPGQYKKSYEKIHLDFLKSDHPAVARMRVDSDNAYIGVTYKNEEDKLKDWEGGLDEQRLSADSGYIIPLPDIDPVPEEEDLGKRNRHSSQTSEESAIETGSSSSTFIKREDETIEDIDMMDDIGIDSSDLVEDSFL
Protocol: (§1) A test compound dissolved in dimethyl sulfoxide (DMSO) was diluted with a buffer (50 mM Tris-HCl (pH 7.5), 5 mM MgCl2, 5 mM MnCl2, 2 mM dithiothreitol, 0.01% Tween-20). To this compound solution (5 μL) was added a buffer (10 μL) containing 125 ng/ml of PDGFRα intracellular domain protein (UPSTATE) and 250 ng/mL of biotin labeled polypeptide biotinyl-poly-Glu:Tyr (4:1) (CIS bio International). At 5 min after mixing kinase enzyme and the compound and biotin labeled polypeptide, to the obtained mixture was added a buffer (10 μL) containing ATP (25 μM), the mixture was allowed to react at 25° C. for 30 min and the reaction was quenched with 25 μL of a stop solution (100 mM EDTA disodium salt, 62.5 mM HEPES buffer (pH 7.4), 250 mM NaCl, 0.1% bovine serum albumin, 10 μg/mL AlphaScreen assay streptavidin donor beads (Streptavidin Donor beads: PerkinElmer), 10 μg/mL AlphaScreen assay anti-phosphotyrosine recognition antibody PT-66 binding acceptor beads (Anti-phosphotyrosine (P-Tyr-66) Acceptor beads: PerkinElmer)). The reaction solution was allowed to stand at 25° C. for 16 hrs, and the wells were counted using a plate reader Fusion™ (PerkinElmer). The kinase inhibitory rate (%) of the test compound was calculated by the following formula: Inhibitory rate(%)=(1−(count of test compound−blank)÷(control−blank))×100
(§2) The count of the solution reacted without addition of the compound was used as a “control”, and the count of the solution without the compound and ATP was used as a “blank”.

[2] = target: T2, VEGFR2 intracellular domain protein (Homo sapiens, UniProt P35968); assay: Determination of vascular endothelial growth factor receptor 2 (VEGFR2) kinase inhibitory activity (AlphaScreen); assay type: biochemical; conditions: read-out: VEGFR2 kinase inhibitory rate
T2 construct: made in house; host or cells: SF-21 insect cells, recombinant baculovirus BAC-VEGFR2
T2 sequence (P35968 786-1356 limits assumed): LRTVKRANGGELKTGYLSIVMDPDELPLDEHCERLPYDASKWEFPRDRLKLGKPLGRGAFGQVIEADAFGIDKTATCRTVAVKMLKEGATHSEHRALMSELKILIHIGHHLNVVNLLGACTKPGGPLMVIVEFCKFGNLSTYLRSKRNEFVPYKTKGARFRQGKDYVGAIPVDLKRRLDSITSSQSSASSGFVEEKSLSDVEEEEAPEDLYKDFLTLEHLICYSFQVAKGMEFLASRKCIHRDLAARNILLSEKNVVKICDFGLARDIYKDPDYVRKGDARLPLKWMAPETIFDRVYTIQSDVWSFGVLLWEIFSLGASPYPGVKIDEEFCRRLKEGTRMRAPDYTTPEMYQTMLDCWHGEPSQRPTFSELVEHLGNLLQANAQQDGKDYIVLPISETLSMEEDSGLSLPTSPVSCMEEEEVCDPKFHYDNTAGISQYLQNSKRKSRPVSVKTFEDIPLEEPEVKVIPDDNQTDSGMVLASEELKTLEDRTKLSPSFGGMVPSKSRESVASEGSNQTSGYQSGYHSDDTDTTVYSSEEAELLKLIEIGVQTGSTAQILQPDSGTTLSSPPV
Protocol: Human vascular endothelial growth factor receptor 2 (hereinafter to be referred to as VEGFR2) gene was cloned by PCR using cDNA Libraries Human Placenta (Clontech) as a template. The primer used for PCR was prepared from base sequence (Genbank Accession AF035121) information of VEGFR2 gene by adding a base sequence encoding flag peptide and a recognition sequence of the restriction enzyme to a base sequence (2671-4374 of Genbank Accession AF035121) encoding the VEGFR2 intracellular domain region, so that the protein contains an N-terminal Flag tag. The primer base sequence is shown below.
SF-21 cells were sown at 1×10^6 cells/mL to Sf-900II SFM medium (1 L, Invitrogen) containing 10% fetal bovine serum (trace), 50 mg/L Gentamicin (Invitrogen) and 0.1% Pluronic F-68 (Invitrogen), and shaking culture was performed using a 2 L volume Erlenmeyer flask at 27° C., 100 rpm. After culturing for 24 hrs, recombinant baculovirus BAC-VEGFR2 (13.4 mL) was added to the mixture, and the mixture was further cultured for 3 days. The culture medium was centrifuged at 2,000 rpm for 5 min to give virus-infected cells. The infected cells were washed with a phosphate buffered saline (Invitrogen), centrifuged under the same conditions, and the cells were preserved at −80° C. The cryopreserved cells were thawed in ice, suspended in buffer A (50 mM Tris buffer (30 mL, pH 7.4) containing 20% glycerol, 0.15 M NaCl) supplemented with Complete Protease Inhibitor (Boehringer), and ruptured 3 times with a Polytron homogenizer (Kinematica) at 20,000 rpm for 30 sec. The ruptured medium was clarified by centrifugation at 40,000 rpm for 30 min and filtered with a 0.45 μm filter. The filtrate was passed through a column packed with Anti-FLAG M2 Affinity Gel (4 mL, Sigma) at a flow rate of about 0.5 mL/min. The column was washed with buffer A, and eluted with buffer A containing 100 μg/mL of FLAG peptide. The eluate was concentrated with Vivaspin 20 (Vivascience) having a molecular weight cut off of 30K. The buffer of this concentrate was exchanged using NAP™ 25 column (Amersham Bioscience) equilibrated with buffer A. The fractions containing intracellular domain protein of VEGFR2 were collected, glycerol was added to the final concentration of 50% and cryopreserved at −80° C.
A test compound dissolved in dimethyl sulfoxide (DMSO) was diluted with a buffer (50 mM Tris-HCl (pH 7.5), 5 mM MgCl2, 5 mM MnCl2, 2 mM dithiothreitol, 0.01% Tween-20). To this compound solution (5 μL) was added a buffer (10 μL) containing 50 ng/mL of VEGFR2 intracellular domain protein and 250 ng/mL of biotin labeled polypeptide biotinyl-poly-Glu:Tyr (4:1) (CIS bio International). To the obtained mixture was added a buffer (10 μL) containing ATP (25 μM), the mixture was allowed to react at 25° C. for 5 min and the reaction was quenched with 25 μL of a stop solution (100 mM EDTA disodium salt, 62.5 mM HEPES buffer (pH 7.4), 250 mM NaCl, 0.1% bovine serum albumin, 10 μg/mL AlphaScreen assay streptavidin donor beads (Streptavidin Donor beads: PerkinElmer), 10 μg/mL AlphaScreen assay anti-phosphotyrosine recognition antibody PY-100 binding acceptor beads (Anti-phosphotyrosine (P-Tyr-100) Acceptor beads: PerkinElmer)). The reaction solution was allowed to stand at 25° C. for 16 hrs, and the wells were counted using a plate reader Fusion™ (PerkinElmer). The kinase inhibitory rate (%) of the test compound was calculated by the following formula: Inhibitory rate(%)=(1−(count of test compound−blank)÷(control−blank))×100

[3] = tested on: Human umbilical vein-derived vascular endothelial cells (HUVEC); assay: Vascular endothelial cell growth inhibitory test (VEGF-stimulated HUVEC, XTT); assay type: cell-based; conditions: 120 h, 5 days of culture
Protocol: To be specific, HUVEC was suspended in a vascular endothelial cell medium containing the aforementioned 5% bovine fetal serum and plated on a 96 well flat bottom plate by 50 μL (3000 cells) each well. After culture overnight, various concentrations of the test substance and 120 ng/mL of vascular endothelial growth factor (VEGF) were dissolved in a vascular endothelial cell medium containing 5% bovine fetal serum and added to each well by 50 μL. After 5 days of culture, a XTT reagent (Wako Pure Chemical Industries, Ltd.) was added to each well by 10 μL, and the mixture was reacted in an incubator at 37° C., 5% carbon dioxide for 2-3 hr. The absorbance at 450 nm was measured by a microtiter plate reader and the cell growth inhibitory activity was determined.

[4] = target: T3, PDGFRβ intracellular domain protein (Homo sapiens, UniProt P09619); assay: Determination of platelet-derived growth factor receptor β (PDGFRβ) kinase inhibitory activity (AlphaScreen); assay type: biochemical
T3 construct: 125 ng/ml of PDGFRβ intracellular domain protein (UPSTATE); purchased UPSTATE
T3 sequence (P09619 554-1106 limits assumed): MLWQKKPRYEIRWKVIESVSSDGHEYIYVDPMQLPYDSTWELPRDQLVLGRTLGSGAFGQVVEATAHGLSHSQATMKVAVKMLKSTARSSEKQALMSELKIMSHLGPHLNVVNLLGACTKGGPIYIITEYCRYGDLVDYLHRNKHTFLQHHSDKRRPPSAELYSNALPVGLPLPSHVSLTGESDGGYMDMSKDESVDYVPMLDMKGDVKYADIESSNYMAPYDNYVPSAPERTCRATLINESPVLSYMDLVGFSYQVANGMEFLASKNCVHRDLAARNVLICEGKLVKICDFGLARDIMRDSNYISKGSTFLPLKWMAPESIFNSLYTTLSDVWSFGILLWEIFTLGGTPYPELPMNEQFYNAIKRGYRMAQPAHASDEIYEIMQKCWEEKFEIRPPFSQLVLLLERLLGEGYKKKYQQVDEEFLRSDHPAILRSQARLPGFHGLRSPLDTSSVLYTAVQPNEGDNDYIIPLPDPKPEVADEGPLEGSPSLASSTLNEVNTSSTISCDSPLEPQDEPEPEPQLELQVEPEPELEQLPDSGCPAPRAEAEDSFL
Protocol: as §1, with “of PDGFRβ” for “of PDGFRα”, “Donor Beads:” for “Donor beads:”, “test compound[…])÷(control−blank))×100” for “test compound−blank)÷(control−blank))×100”
as §2

Row | SMILES | IC50 [1] | inhibition at 1 µM [2] | IC50 [3] | IC50 [4]
1 | O=C(Nc1cn2nc(Oc3ccc4cc[nH]c4c3)ccc2n1)C1CC1 [Example 95, N-[6-(1H-indol-6-yloxy)imidazo[1,2-b]pyridazin-2-yl]cyclopropanecarboxamide] | ≤ 500 nM | ≥ 90% | ≤ 500 nM | –
2 | CCNC(=O)Nc1cccc(Oc2ccc3nc(NC(=O)C4CC4)cn3n2)c1 [Example 103, N-[6-(3-{[(ethylamino)carbonyl]amino}phenoxy)imidazo[1,2-b]pyridazin-2-yl]cyclopropanecarboxamide] | – | ≥ 90% | ≤ 500 nM | ≤ 500 nM
3 | Cc1ccc(Oc2ccc3nc(NC(=O)C4CC4)cn3n2)cc1N [Example 108, N-[6-(3-amino-4-methylphenoxy)imidazo[1,2-b]pyridazin-2-yl]cyclopropanecarboxamide] | – | ≥ 90% | ≤ 500 nM | –
4 | Cc1cc(C(=O)Nc2cc(Oc3ccc4nc(NC(=O)C5CC5)cn4n3)ccc2C)n(C)n1 [Example 111, N-[5-({2-[(cyclopropylcarbonyl)amino]imidazo[1,2-b]pyridazin-6-yl}oxy)-2-methylphenyl]-1,3-dimethyl-1H-pyrazole-5-carboxamide] | – | ≥ 90% | ≤ 500 nM | –
5 | Cc1nc(C)c(C(=O)Nc2cccc(Oc3ccc4nc(NC(=O)C5CC5)cn4n3)c2)s1 [Example 114, N-[3-({2-[(cyclopropylcarbonyl)amino]imidazo[1,2-b]pyridazin-6-yl}oxy)phenyl]-2,4-dimethyl-1,3-thiazole-5-carboxamide] | – | ≥ 90% | ≤ 500 nM | ≤ 500 nM
6 | Cc1nc(C(=O)Nc2cccc(Oc3ccc4nc(NC(=O)C5CC5)cn4n3)c2)c(C)o1 [Example 117, N-[3-({2-[(cyclopropylcarbonyl)amino]imidazo[1,2-b]pyridazin-6-yl}oxy)phenyl]-2,5-dimethyl-1,3-oxazole-4-carboxamide] | – | ≥ 90% | ≤ 500 nM | ≤ 500 nM
7 | COCC(=O)Nc1cn2nc(Oc3cccc(NC(=O)c4cc(C)nn4C)c3)ccc2n1 [Example 127, N-[3-({2-[(methoxyacetyl)amino]imidazo[1,2-b]pyridazin-6-yl}oxy)phenyl]-1,3-dimethyl-1H-pyrazole-5-carboxamide] | – | ≥ 90% | ≤ 500 nM | ≤ 500 nM
8 | Cc1cc(C(=O)Nc2cc(Oc3ccc4nc(NC(=O)C5CC5)cn4n3)ccc2F)n(C)n1 [Example 148, N-[5-({2-[(cyclopropylcarbonyl)amino]imidazo[1,2-b]pyridazin-6-yl}oxy)-2-fluorophenyl]-1,3-dimethyl-1H-pyrazole-5-carboxamide] | ≤ 500 nM | ≥ 90% | ≤ 500 nM | ≤ 500 nM
9 | Cc1cc(C(=O)Nc2cccc(Oc3ccc4nc(NC(=O)CN(C)C)cn4n3)c2)n(C)n1 [Example 149, N-[3-({2-[(N,N-dimethylglycyl)amino]imidazo[1,2-b]pyridazin-6-yl}oxy)phenyl]-1,3-dimethyl-1H-pyrazole-5-carboxamide] | – | ≥ 90% | ≤ 500 nM | ≤ 500 nM
10 | Cc1cc(C(=O)Nc2cccc(Sc3ccc4nc(NC(=O)C5CC5)cn4n3)c2)n(C)n1 [Example 150, N-[3-({2-[(cyclopropylcarbonyl)amino]imidazo[1,2-b]pyridazin-6-yl}sulfanyl)phenyl]-1,3-dimethyl-1H-pyrazole-5-carboxamide] | – | ≥ 90% | ≤ 500 nM | ≤ 500 nM
11 | CCn1cc(C(=O)Nc2cc(Oc3ccc4nc(NC(=O)C5CC5)cn4n3)ccc2F)c(C)n1 [Example 161, N-[5-({2-[(cyclopropylcarbonyl)amino]imidazo[1,2-b]pyridazin-6-yl}oxy)-2-fluorophenyl]-1-ethyl-3-methyl-1H-pyrazole-4-carboxamide] | ≤ 500 nM | ≥ 90% | ≤ 500 nM | ≤ 500 nM
12 | O=C(Nc1cccc(Oc2ccc3nc(NC(=O)C4CC4)cn3n2)c1)c1ccccc1 [Example 165, N-[3-({2-[(cyclopropylcarbonyl)amino]imidazo[1,2-b]pyridazin-6-yl}oxy)phenyl]benzamide] | ≤ 500 nM | ≥ 90% | ≤ 500 nM | ≤ 500 nM
13 | CCn1cc(C(=O)Nc2cc(Oc3ccc4nc(NC(=O)C5CC5)cn4n3)ccc2Cl)c(C)n1 [Example 254, N-[2-chloro-5-({2-[(cyclopropylcarbonyl)amino]imidazo[1,2-b]pyridazin-6-yl}oxy)phenyl]-1-ethyl-3-methyl-1H-pyrazole-4-carboxamide] | – | ≥ 90% | ≤ 500 nM | ≤ 500 nM
